Experimental data from ChEMBL document CHEMBL5576159, “Discovery and structure-activity relationship study of novel isoxazole-based small molecules targeting Zika virus infections” (RSC Med Chem, 2024).

Columns and labels:
[1] = Selectivity index, ratio of CC50 for African green monkey Vero cells infected with ZIKV MR766 to EC50 for ZIKV MR766 infected in Vero cells
Zika virus [2] = test: Antiviral activity against ZIKV MR766 infected in Vero cells measured after 48 hrs by immunofluorescence analysis
[3] = Cytotoxicity against African green monkey Vero cells infected with ZIKV MR766 incubated for 48 hrs by immunofluorescence analysis; details: chlorocebus sabaeus, Vero cells infected with ZIKV PRVABC59
Cytochrome P450 2D6 = Cytochrome P450 2D6 (Homo sapiens, UniProt P10635); test: Inhibition of CYP2D6 in human liver microsomes using dextromethorphan as substrate preincubated for 5 mins followed by substrate and NADPH addition and measured after 20 mins by LC-MS/MS analysis
Chain of Cytochrome P450 2D6 (P10635 whole entry): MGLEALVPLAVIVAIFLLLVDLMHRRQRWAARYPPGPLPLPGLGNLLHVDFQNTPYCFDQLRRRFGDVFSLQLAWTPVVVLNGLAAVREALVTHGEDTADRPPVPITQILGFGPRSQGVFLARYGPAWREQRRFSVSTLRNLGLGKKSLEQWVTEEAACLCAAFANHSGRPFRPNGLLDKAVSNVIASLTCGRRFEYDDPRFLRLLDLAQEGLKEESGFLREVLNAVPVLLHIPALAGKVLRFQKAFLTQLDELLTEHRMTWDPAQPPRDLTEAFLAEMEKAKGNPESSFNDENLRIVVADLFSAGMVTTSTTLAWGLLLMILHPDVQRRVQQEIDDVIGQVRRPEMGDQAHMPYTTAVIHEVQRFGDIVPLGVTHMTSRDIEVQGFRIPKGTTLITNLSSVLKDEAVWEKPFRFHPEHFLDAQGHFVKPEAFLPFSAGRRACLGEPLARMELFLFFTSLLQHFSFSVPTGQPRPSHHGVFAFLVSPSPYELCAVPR

Zika virus [4] = test: Antiviral activity against ZIKV BR infected in cervical cells; details: Cervical cell
[5] = Stability in rat liver microsomes assessed as compound remaining at 1 uM incubated for 30 mins by LC-MS/MS analysis
[6] = Plasma protein binding in mouse at 5 uM incubated for 4 hrs under shaking condition by LC-MS/MS analysis
[7] = Plasma protein binding in human at 5 uM incubated for 4 hrs under shaking condition by LC-MS/MS analysis
hERG = hERG (Homo sapiens, UniProt Q12809); test: Inhibition of hERG at 10 uM incubated for 2 hrs relative to control
Chain of hERG (Q12809 whole entry): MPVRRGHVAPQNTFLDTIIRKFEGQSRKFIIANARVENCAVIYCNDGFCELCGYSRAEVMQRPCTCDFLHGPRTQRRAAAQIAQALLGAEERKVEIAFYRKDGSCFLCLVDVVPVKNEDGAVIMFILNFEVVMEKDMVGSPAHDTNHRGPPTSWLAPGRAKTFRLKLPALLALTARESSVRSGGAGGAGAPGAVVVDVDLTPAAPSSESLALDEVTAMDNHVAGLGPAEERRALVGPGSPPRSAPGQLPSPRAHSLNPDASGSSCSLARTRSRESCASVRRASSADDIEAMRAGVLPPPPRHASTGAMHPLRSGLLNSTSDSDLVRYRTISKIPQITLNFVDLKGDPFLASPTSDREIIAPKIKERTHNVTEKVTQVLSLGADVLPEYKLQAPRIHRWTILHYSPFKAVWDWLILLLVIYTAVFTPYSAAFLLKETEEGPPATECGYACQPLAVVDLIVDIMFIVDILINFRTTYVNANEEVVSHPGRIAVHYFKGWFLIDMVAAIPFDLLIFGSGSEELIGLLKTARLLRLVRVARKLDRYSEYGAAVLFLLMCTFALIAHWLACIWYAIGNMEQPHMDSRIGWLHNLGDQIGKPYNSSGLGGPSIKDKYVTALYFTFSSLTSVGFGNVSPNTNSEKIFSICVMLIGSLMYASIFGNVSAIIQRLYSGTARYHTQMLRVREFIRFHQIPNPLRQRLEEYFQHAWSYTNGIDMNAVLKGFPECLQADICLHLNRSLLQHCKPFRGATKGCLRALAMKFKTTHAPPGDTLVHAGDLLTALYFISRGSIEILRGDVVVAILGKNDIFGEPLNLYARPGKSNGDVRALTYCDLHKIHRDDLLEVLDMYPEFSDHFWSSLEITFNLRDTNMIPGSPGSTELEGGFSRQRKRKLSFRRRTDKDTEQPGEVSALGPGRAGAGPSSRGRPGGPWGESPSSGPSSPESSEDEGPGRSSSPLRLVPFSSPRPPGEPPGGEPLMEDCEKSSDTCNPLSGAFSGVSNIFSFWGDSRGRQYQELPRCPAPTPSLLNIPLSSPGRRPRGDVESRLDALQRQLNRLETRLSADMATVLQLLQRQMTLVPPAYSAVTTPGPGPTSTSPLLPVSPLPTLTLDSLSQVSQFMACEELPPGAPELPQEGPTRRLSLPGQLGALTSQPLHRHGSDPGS

[8] = Stability in human liver microsomes assessed as compound remaining at 1 uM incubated for 30 mins by LC-MS/MS analysis
[9] = Stability in mouse liver microsomes assessed as compound remaining at 1 uM incubated for 30 mins by LC-MS/MS analysis
Zika virus [10] = test: Antiviral activity against ZIKV infected in Vero E6 cells assessed as inhibition of viral replication; details: Vero C1008
[11] = Cytotoxicity against African green monkey Vero E6 cells; format: toxicity, cell-based, Vero C1008; details: chlorocebus sabaeus

Row | Structure (SMILES) | EC50 (Zika virus [2]) [µM] | CC50 at 48 h [3] [µM] | other results
1 | FC(F)(F)c1cc(-c2cc(-c3ccc(NCc4cccnc4)cc3)no2)ccn1 | – | > 100 | –
2 | FC(F)(F)Oc1ccc(-c2cc(-c3ccc(NCc4cccnc4)cc3)no2)nc1 | – | > 100 | –
3 | COc1ccccc1-c1cc(-c2ccc(NCc3cccnc3)cc2)no1 | – | > 100 | IC50 (Cytochrome P450 2D6): 27.1 µM
4 | O=S(=O)(NCCCCNc1ccnc2cc(Cl)ccc12)c1ccc(Cl)cc1 | – | – | EC50 (Zika virus [4]): 3.2 µM
5 | c1cncc(CNc2ccc(-c3cc(-c4cncnc4)on3)cc2)c1 | – | > 100 | IC50 (Cytochrome P450 2D6): 3.5 µM
6 | FC(F)(F)c1ccc(-c2cc(-c3ccc(NCc4cccnc4)cc3)no2)cc1 | – | > 100 | remaining at 0.5 h, 1 µM [5]: 51.7%; IC50 (Cytochrome P450 2D6): > 99 µM; fraction unbound at 4 h, 5 µM [6]: 0.003; fraction unbound at 4 h, 5 µM [7]: 0.0047; inhibition at 2 h, 10 µM (hERG): 5.37%; remaining at 0.5 h, 1 µM [8]: 71.5%; remaining at 0.5 h, 1 µM [9]: 79.6%
7 | Fc1ccc(-c2cc(-c3ccc(NCc4cccnc4)cc3)no2)cc1 | – | > 100 | –
8 | CCn1c2ccccc2c2cc(NC(=O)Nc3ccc(N)cc3C)ccc21 | – | – | EC50 (Zika virus [10]): 1.67 µM; CC50 [11]: > 12.5 µM
9 | N#Cc1ccc(-c2cc(-c3ccc(NCc4cccnc4)cc3)no2)cc1 | – | > 100 | IC50 (Cytochrome P450 2D6): > 99 µM
10 | Fc1cccc(-c2cc(-c3ccc(NCc4cccnc4)cc3)no2)c1 | 3.3 | – | –
11 | FC(F)(F)Oc1ccccc1-c1cc(-c2ccc(NCc3cccnc3)cc2)no1 | 44.5 | – | –

Now from value to compound, other results behind:

Row | EC50 (Zika virus [2]) [µM] | Structure (SMILES) | CC50 at 48 h [3] [µM] | other results
12 | 5.1 | c1ccc(-c2cnc(-c3ccc(NCc4cccnc4)cc3)o2)cc1 | 12.9 | selectivity ratio [1]: 2.5
13 | 5.3 | c1ccc(-c2noc(-c3ccc(NCc4cccnc4)cc3)n2)cc1 | 61.4 | selectivity ratio [1]: 11.6
14 | > 100 | c1ccc(-c2nnc(-c3ccc(NCc4cccnc4)cc3)o2)cc1 | > 100 | –
15 | 36.8 | c1ccc(-c2nc(-c3ccc(NCc4cccnc4)cc3)c[nH]2)cc1 | 94.1 | selectivity ratio [1]: 2.6
16 | > 100 | Cn1cc(-c2ccc(NCc3cccnc3)cc2)nc1-c1ccccc1 | > 100 | –
